Test results taken from the supplement of paper PMC12420376.

Legend:
Gem015 = ex vivo spheroids of an HRD-positive high-grade serous ovarian cancer; assay: cell viability relative to untreated control (ex vivo patient spheroids); higher = less cytotoxic; conditions: 72 h
Procedure: (§1)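 Ex vivo 3D spheroid cultures from dissociated tumours of HGSOC patients (DET3CT platform) were treated for 72 h with dose matrices of carboplatin combined with birinapant or vorinostat (nM). Live (TMRM) and dead (POPO-1) cells were imaged and viability was expressed as % of untreated control.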

Gem243 = ex vivo spheroids of an HRD-positive high-grade serous ovarian cancer; assay: as above; conditions: 72 h
Procedure: as §1

[1] = carboplatin concentration 10 nM, partner drug concentration 0.1 nM
[2] = carboplatin concentration 10 nM, partner drug concentration 1 nM
[3] = carboplatin concentration 10 nM, partner drug concentration 10 nM
[4] = carboplatin concentration 10 nM, partner drug concentration 100 nM
[5] = carboplatin concentration 10 nM, partner drug concentration 1000 nM
[6] = carboplatin concentration 100 nM, partner drug concentration 0.1 nM
[7] = carboplatin concentration 100 nM, partner drug concentration 1 nM
[8] = carboplatin concentration 100 nM, partner drug concentration 10 nM
[9] = carboplatin concentration 100 nM, partner drug concentration 100 nM
[10] = carboplatin concentration 100 nM, partner drug concentration 1000 nM
[11] = carboplatin concentration 1000 nM, partner drug concentration 0.1 nM
[12] = carboplatin concentration 1000 nM, partner drug concentration 1 nM
[13] = carboplatin concentration 1000 nM, partner drug concentration 10 nM
[14] = carboplatin concentration 1000 nM, partner drug concentration 100 nM
[15] = carboplatin concentration 1000 nM, partner drug concentration 1000 nM
[16] = carboplatin concentration 10000 nM, partner drug concentration 0 nM
[17] = carboplatin concentration 10000 nM, partner drug concentration 0.1 nM
[18] = carboplatin concentration 10000 nM, partner drug concentration 1 nM
[19] = carboplatin concentration 10000 nM, partner drug concentration 10 nM
[20] = carboplatin concentration 10000 nM, partner drug concentration 100 nM
[21] = carboplatin concentration 10000 nM, partner drug concentration 1000 nM
[22] = carboplatin concentration 100000 nM, partner drug concentration 0 nM
[23] = carboplatin concentration 100000 nM, partner drug concentration 0.1 nM
[24] = carboplatin concentration 100000 nM, partner drug concentration 1 nM
[25] = carboplatin concentration 100000 nM, partner drug concentration 10 nM
[26] = carboplatin concentration 100000 nM, partner drug concentration 100 nM
[27] = carboplatin concentration 100000 nM, partner drug concentration 1000 nM
[28] = carboplatin concentration 10 nM, partner drug concentration 0 nM
[29] = carboplatin concentration 10 nM, partner drug concentration 10000 nM
[30] = carboplatin concentration 100 nM, partner drug concentration 0 nM
[31] = carboplatin concentration 100 nM, partner drug concentration 10000 nM
[32] = carboplatin concentration 1000 nM, partner drug concentration 0 nM
[33] = carboplatin concentration 1000 nM, partner drug concentration 10000 nM
[34] = carboplatin concentration 10000 nM, partner drug concentration 10000 nM
[35] = carboplatin concentration 100000 nM, partner drug concentration 10000 nM

SMILES: O=C(O)C1(C(=O)O)CCC1.[NH2-].[NH2-].[Pt+2] [Carboplatin] + CC[C@H](NC(=O)[C@H](C)NC)C(=O)N1C[C@@H](O)C[C@H]1Cc1c(-c2[nH]c3cc(F)ccc3c2C[C@@H]2C[C@H](O)CN2C(=O)[C@H](CC)NC(=O)[C@H](C)NC)[nH]c2cc(F)ccc12 [Birinapant]
- cell viability (Gem015; [1]): 100%
- cell viability (Gem015; [2]): 93.1%
- cell viability (Gem015; [3]): 93.5%
- cell viability (Gem015; [4]): 82%
- cell viability (Gem015; [5]): 55.1%
- cell viability (Gem015; [6]): 98.5%
- cell viability (Gem015; [7]): 90%
- cell viability (Gem015; [8]): 101%
- cell viability (Gem015; [9]): 77%
- cell viability (Gem015; [10]): 67.2%
- cell viability (Gem015; [11]): 103%
- cell viability (Gem015; [12]): 89.1%
- cell viability (Gem015; [13]): 81.6%
- cell viability (Gem015; [14]): 85.2%
- cell viability (Gem015; [15]): 59.3%
- cell viability (Gem015; [16]): 91.1%
- cell viability (Gem015; [17]): 73.5%
- cell viability (Gem015; [18]): 97.6%
- cell viability (Gem015; [19]): 89.5%
- cell viability (Gem015; [20]): 84.6%
- cell viability (Gem015; [21]): 59%
- cell viability (Gem015; [22]): 61.2%
- cell viability (Gem015; [23]): 58.2%
- cell viability (Gem015; [24]): 75.8%
- cell viability (Gem015; [25]): 73.6%
- cell viability (Gem015; [26]): 58.7%
- cell viability (Gem015; [27]): 39.9%
- cell viability (Gem243; [1]): 92.7%
- cell viability (Gem243; [2]): 105%
- cell viability (Gem243; [3]): 80.2%
- cell viability (Gem243; [4]): 52.3%
- cell viability (Gem243; [5]): 13.7%
- cell viability (Gem243; [6]): 108%
- cell viability (Gem243; [7]): 105%
- cell viability (Gem243; [8]): 84.7%
- cell viability (Gem243; [9]): 41.3%
- cell viability (Gem243; [10]): 15.9%
- cell viability (Gem243; [11]): 95.4%
- cell viability (Gem243; [12]): 94.8%
- cell viability (Gem243; [13]): 93.9%
- cell viability (Gem243; [14]): 45.3%
- cell viability (Gem243; [15]): 15.2%
- cell viability (Gem243; [16]): 89.9%
- cell viability (Gem243; [17]): 90.9%
- cell viability (Gem243; [18]): 77.3%
- cell viability (Gem243; [19]): 82.9%
- cell viability (Gem243; [20]): 42.4%
- cell viability (Gem243; [21]): 13.9%
- cell viability (Gem243; [22]): 23.6%
- cell viability (Gem243; [23]): 28.8%
- cell viability (Gem243; [24]): 24.9%
- cell viability (Gem243; [25]): 14%
- cell viability (Gem243; [26]): 7.4%
- cell viability (Gem243; [27]): 6%

SMILES: O=C(O)C1(C(=O)O)CCC1.[NH2-].[NH2-].[Pt+2] [Carboplatin] + O=C(CCCCCCC(=O)Nc1ccccc1)NO [Vorinostat]
- cell viability (Gem015; [28]): 85.7%
- cell viability (Gem015; [2]): 100%
- cell viability (Gem015; [3]): 97.5%
- cell viability (Gem015; [4]): 97.6%
- cell viability (Gem015; [5]): 76.3%
- cell viability (Gem015; [29]): 35.6%
- cell viability (Gem015; [30]): 97.2%
- cell viability (Gem015; [7]): 94.2%
- cell viability (Gem015; [8]): 92.8%
- cell viability (Gem015; [9]): 93.8%
- cell viability (Gem015; [10]): 79.3%
- cell viability (Gem015; [31]): 37.7%
- cell viability (Gem015; [32]): 88.1%
- cell viability (Gem015; [12]): 96.2%
- cell viability (Gem015; [13]): 91.6%
- cell viability (Gem015; [14]): 91.3%
- cell viability (Gem015; [15]): 71.6%
- cell viability (Gem015; [33]): 36.2%
- cell viability (Gem015; [16]): 91.1%
- cell viability (Gem015; [18]): 84.9%
- cell viability (Gem015; [19]): 97.1%
- cell viability (Gem015; [20]): 95.6%
- cell viability (Gem015; [21]): 77.2%
- cell viability (Gem015; [34]): 36.1%
- cell viability (Gem015; [22]): 61.2%
- cell viability (Gem015; [24]): 71.2%
- cell viability (Gem015; [25]): 77.1%
- cell viability (Gem015; [26]): 74.6%
- cell viability (Gem015; [27]): 63.5%
- cell viability (Gem015; [35]): 32.3%
- cell viability (Gem243; [28]): 90.3%
- cell viability (Gem243; [2]): 88.4%
- cell viability (Gem243; [3]): 82.3%
- cell viability (Gem243; [4]): 101%
- cell viability (Gem243; [5]): 67.9%
- cell viability (Gem243; [29]): 19.7%
- cell viability (Gem243; [30]): 87.3%
- cell viability (Gem243; [7]): 98%
- cell viability (Gem243; [8]): 91.7%
- cell viability (Gem243; [9]): 90.8%
- cell viability (Gem243; [10]): 74.3%
- cell viability (Gem243; [31]): 13.3%
- cell viability (Gem243; [32]): 107%
- cell viability (Gem243; [12]): 105%
- cell viability (Gem243; [13]): 47.4%
- cell viability (Gem243; [14]): 101%
- cell viability (Gem243; [15]): 68.9%
- cell viability (Gem243; [33]): 10.1%
- cell viability (Gem243; [16]): 89.9%
- cell viability (Gem243; [18]): 95.3%
- cell viability (Gem243; [19]): 101%
- cell viability (Gem243; [20]): 104%
- cell viability (Gem243; [21]): 42.1%
- cell viability (Gem243; [34]): 10.4%
- cell viability (Gem243; [22]): 23.6%
- cell viability (Gem243; [24]): 21.6%
- cell viability (Gem243; [25]): 17%
- cell viability (Gem243; [26]): 11.3%
- cell viability (Gem243; [27]): 7.3%
- cell viability (Gem243; [35]): 6.7%
